In the test the target is T1, interaction between biotinylated human S100A9 and human RAGE-Fc (Homo sapiens, UniProt P06702).
T1 construct: made in house; host or cells: E. coli
T1 sequence (P06702 1-114): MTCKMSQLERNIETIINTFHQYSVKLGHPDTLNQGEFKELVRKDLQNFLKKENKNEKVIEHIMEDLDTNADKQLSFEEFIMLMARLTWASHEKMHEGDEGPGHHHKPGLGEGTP
The test is described as follows: AlphaScreen inhibition assay, biot-hS100A9:hRAGE-Fc. The following applies: biot-hS100A9 pre-incubated with compound 1 h, assay buffer with CaCl2 and ZnCl2. In kind it is binding. The text has this: Inhibition Assay, Biot-hS100A9:hRAGE-Fc
The AlphaScreen (Amplified Luminescent Proximity Homogeneous Assay) contains two types of beads, Alpha Donor beads and Acceptor beads (PerkinElmer). Upon laser excitation at 680 nm a photosensitizer in the Donor bead converts ambient oxygen to a more excited singlet state. The singlet oxygen molecule diffuses (maximum 200 nm) to react with a thioxene derivative in the Acceptor bead and generates a chemiluminescence reaction. Fluorophores in the Acceptor bead subsequently emit light at 520-620 nm which can be detected in the EnVision® Multilabel plate Reader (PerkinElmer). The beads are light sensitive and all work with the beads is performed under subdued light conditions or using green filters on light sources (Roscolux Chroma Green #389, Rosco).
In the AlphaScreen Inhibition Assay described here, protein A (Staphylococcus aureus) conjugated Acceptor beads are used together with streptavidin coated Donor beads (Perkin Elmer 6760617M). The Acceptor beads are pre-incubated with Fc-tagged recombinant human RAGE (rhRAGE-Fc) allowing binding of the rhRAGE-Fc to protein A on the beads. Biotinylated human S100A9 (biot-hS100A9) is pre-incubated with the low molecular test compounds. The pre-mixes are then added to the wells of a micro-plate and incubated allowing interaction between biot-hS100A9 and rhRAGE-Fc. Subsequent addition of streptavidin coated Donor beads causes binding of the streptavidin to the biotinylated hS100A9. After an additional incubation the signal is measured.
Without inhibitory compounds, the interaction of biot-hS100A9 to rhRAGE-Fc will bring the Acceptor and Donor beads in close proximity thus generating a high signal. With an inhibitor present the complex will not form resulting in a decreased signal. The assay is illustrated in FIG. 1.
Chemicals and Reagents. • AlphaScreen® General IgG (Protein A) Detection Kit, (PerkinElmer 6760617M) • HBS-P buffer (GE Healthcare, BR-1003-68) • HBS-N buffer (GE Healthcare, BR-1003-69) • CaCl2 in HBS-P • ZnCl2 in Milli-Q water • DMSO • Biotinylated hS100A9, (biotinylated via cystein by EZ-link Iodoacetyl-PEG2-Biotin reagent (Pierce no. 21334), in HBS-N • rhRAGE-Fc (R&D Systems, 1145-RG-50), in HBS-P
The AlphaScreen assay method is used for screening of the inhibitory effect of different compound samples at fixed concentrations or for IC50 determination by varying the compound concentrations. Samples of test compounds and references are prepared from solutions in DMSO. Relevant reference inhibitors and DMSO are used as controls for defined inhibition and non-inhibition, respectively in the assay. The percent inhibition in assay for test compounds and references are calculated by comparing their obtained assay signals with the signal values for the control with only DMSO (no compound).
Assay concentration of biotinylated hS100A9 and rhRAGE-Fc are batch dependent, and are determined and defined by separate cross-titration experiments using this AlphaScreen inhibition method to verify the optimal setup regarding signal strength and achievement of a defined inhibition with relevant reference compounds. The Final assay concentrations of Acceptor and Donor beads are 20 μg/mL.
Assay buffer is prepared by adding CaCl2 and ZnCl2 to HBS-P and is used freshly prepared in the experiment.
Biotin-hS100A9 solution for the experiment is prepared by dilution of appropriate amount of stock solution biot-hS100A9 in assay buffer (with CaCl2 and ZnCl2) and incubation in room temperature for 30 minutes.
rhRAGE-Fc solution for the experiment is prepared by dilution appropriate amount of rhRAGE-Fc stock in assay buffer.
Protein A Acceptor beads are diluted in assay buffer and are added to an equal volume of the prepared diluted rhRAGE-Fc solution. The beads are light sensitive. The vial is covered with aluminum foil and incubated at room temperature in the dark until biot-hS100A9+compound incubation is finished (see below). […]
What is called IC50 is the concentration that gives 50% inhibition. `CC1CCCc2c1sc1nc(C(=O)NS(C)(=O)=O)cn21` (single isomer, unassigned) [Example 48, N-Methanesulfonyl-9-methyl-7-thia-2,5-diazatricyclo[6.4.0.0^2,6]dodeca-1(8),3,5-triene-4-carboxamide]: the IC50 worked out at 1200 nM.

`CC1CCCc2c1sc1nc(C(=O)NS(C)(=O)=O)cn21` (single isomer, unassigned) [Example 49, N-Methanesulfonyl-9-methyl-7-thia-2,5-diazatricyclo[6.4.0.0^2,6]dodeca-1(8),3,5-triene-4-carboxamide]: the IC50 came to 1010 nM.

Take `O=C(O)[C@@H]1CN2C(=N1)Sc1c2ccc(F)c1Cl` (single isomer, unassigned) [Example 236]: the half-inhibitory concentration (IC50) turned out to be 1300 nM.

Take `O=C(O)[C@H]1CN2C(=N1)Sc1c2ccc(F)c1Cl` (single isomer, unassigned) [Example 237]: the half-inhibitory concentration (IC50) was 680 nM.

In the case of `C[C@]1(C(=O)O)CN2C(=N1)Sc1c2ccc(F)c1Cl` (single isomer, unassigned) [Example 279a], the half-inhibitory concentration (IC50) turned out to be 170 nM.

In the case of `C[C@@]1(C(=O)O)CN2C(=N1)Sc1c2ccc(F)c1Cl` (single isomer, unassigned) [Example 279b], the half-maximal inhibitory concentration (IC50) amounted to 390 nM.

As for `O=C(O)c1cn2c(n1)sc1c(Cl)c(Cl)ccc12` [Example 1, 9,10-Dichloro-7-thia-2,5-diazatricyclo[6.4.0.0^2,6]dodeca-1(8),3,5,9,11-pentaene-4-carboxylic acid], the IC50 amounted to 130 nM.

`O=C(O)c1cn2c(n1)sc1c(Cl)c(F)ccc12` [Example 2, 9-Chloro-10-fluoro-7-thia-2,5-diazatricyclo[6.4.0.0^2,6]dodeca-1(8),3,5,9,11-pentaene-4-carboxylic acid]: the IC50 worked out at 250 nM.

As to `O=C(O)c1cn2c(n1)sc1c(F)c(Cl)ccc12` [Example 3, 10-Chloro-9-fluoro-7-thia-2,5-diazatricyclo[6.4.0.0^2,6]dodeca-1(8),3,5,9,11-pentaene-4-carboxylic acid], the IC50 came to 350 nM.

With `O=C(O)c1cn2c(n1)sc1cc(OC(F)(F)F)ccc12` [Example 4, 10-(Trifluoromethoxy)-7-thia-2,5-diazatricyclo[6.4.0.0^2,6]dodeca-1(8),3,5,9,11-pentaene-4-carboxylic acid], the IC50 was 1160 nM.

As for `O=C(O)c1cn2c(n1)sc1c(Cl)cccc12` [Example 5, 9-Chloro-7-thia-2,5-diazatricyclo[6.4.0.0^2,6]dodeca-1(8),3,5,9,11-pentaene-4-carboxylic acid], the half-maximal inhibitory concentration (IC50) came to 1300 nM.

As for `O=C(O)c1cn2c(n1)sc1cccc(Cl)c12` [Example 7, 12-Chloro-7-thia-2,5-diazatricyclo[6.4.0.0^2,6]dodeca-1(8),3,5,9,11-pentaene-4-carboxylic acid], the IC50 turned out to be 2160 nM.

As to `O=C(O)c1cn2c(n1)sc1cc(Cl)ccc12` [Example 8, 10-Chloro-7-thia-2,5-diazatricyclo[6.4.0.0^2,6]dodeca-1(8),3,5,9,11-pentaene-4-carboxylic acid], the IC50 turned out to be 2700 nM.

In the case of `O=C(O)c1cn2c(n1)sc1cc(F)ccc12` [Example 10, 10-Fluoro-7-thia-2,5-diazatricyclo[6.4.0.0^2,6]dodeca-1(8),3,5,9,11-pentaene-4-carboxylic acid], the concentration for half-maximal inhibition (IC50) is 2970 nM.

For `Cc1ccc2c(c1)sc1nc(C(=O)O)cn12` [Example 11, 10-Methyl-7-thia-2,5-diazatricyclo[6.4.0.0^2,6]dodeca-1(8),3,5,9,11-pentaene-4-carboxylic acid], the IC50 worked out at 5020 nM.

Take `O=C(O)c1cn2c(n1)sc1ccc(Cl)cc12` [Example 12, 11-Chloro-7-thia-2,5-diazatricyclo[6.4.0.0^2,6]dodeca-1(8),3,5,9,11-pentaene-4-carboxylic acid]: the 50% inhibitory concentration (IC50) amounted to 5610 nM.

Regarding `O=C(O)c1cn2c(n1)sc1cc(Br)ccc12` [Example 13, 10-Bromo-7-thia-2,5-diazatricyclo[6.4.0.0^2,6]dodeca-1(8),3,5,9,11-pentaene-4-carboxylic acid], the IC50 was 1300 nM.

For the molecule `O=C(O)c1cn2c(n1)sc1cc(C(F)(F)F)ccc12` [Example 14, 10-(Trifluoromethyl)-7-thia-2,5-diazatricyclo[6.4.0.0^2,6]dodeca-1(8),3,5,9,11-pentaene-4-carboxylic acid], the IC50 was 2140 nM.

`O=C(O)c1cn2c(n1)sc1cc(Cl)cc(Cl)c12` [Example 16, 10,12-Dichloro-7-thia-2,5-diazatricyclo[6.4.0.0^2,6]dodeca-1(8),3,5,9,11-pentaene-4-carboxylic acid]: the IC50 worked out at 1590 nM.

As for `O=C(O)c1nc2sc3cc(OC(F)(F)F)ccc3n2c1Br` [Example 17, 3-Bromo-10-(trifluoromethoxy)-7-thia-2,5-diazatricyclo[6.4.0.0^2,6]dodeca-1(8),3,5,9,11-pentaene-4-carboxylic acid], the IC50 was 3410 nM.

In the case of `CC(C)(C)Nc1c(C(=O)O)nc2sc3cc(OC(F)(F)F)ccc3n12` [Example 18, 3-(tert-Butylamino)-10-(trifluoromethoxy)-7-thia-2,5-diazatricyclo[6.4.0.0^2,6]dodeca-1(8),3,5,9,11-pentaene-4-carboxylic acid], the half-inhibitory concentration (IC50) amounted to 1030 nM.

`O=C(O)Cc1cn2c(n1)sc1c(Cl)c(Cl)ccc12` [Example 19, 2-{9,10-Dichloro-7-thia-2,5-diazatricyclo[6.4.0.0^2,6]dodeca-1(8),3,5,9,11-pentaen-4-yl}acetic acid]: the IC50 worked out at 720 nM.

On to `CS(=O)(=O)NC(=O)c1cn2c(n1)sc1cc(OC(F)(F)F)ccc12` [Example 20, N-Methanesulfonyl-10-(trifluoromethoxy)-7-thia-2,5-diazatricyclo[6.4.0.0^2,6]dodeca-1(8),3,5,9,11-pentaene-4-carboxamide], for which the 50% inhibitory concentration (IC50) is 2210 nM.

Consider `CS(=O)(=O)NC(=O)c1cn2c(n1)sc1c(Cl)c(Cl)ccc12` [Example 21, 9,10-Dichloro-N-methanesulfonyl-7-thia-2,5-diazatricyclo[6.4.0.0^2,6]dodeca-1(8),3,5,9,11-pentaene-4-carboxamide], for which the half-inhibitory concentration (IC50) was found to be 180 nM.

`O=C(NS(=O)(=O)C1CC1)c1cn2c(n1)sc1c(Cl)c(Cl)ccc12` [Example 22, 9,10-Dichloro-N-(cyclopropanesulfonyl)-7-thia-2,5-diazatricyclo[6.4.0.0^2,6]dodeca-1(8),3,5,9,11-pentaene-4-carboxamide]: the IC50 was 280 nM.

Turning to `COCCS(=O)(=O)NC(=O)c1cn2c(n1)sc1c(Cl)c(Cl)ccc12` [Example 23, 9,10-Dichloro-N-(2-methoxyethanesulfonyl)-7-thia-2,5-diazatricyclo[6.4.0.0^2,6]dodeca-1(8),3,5,9,11-pentaene-4-carboxamide], the half-maximal inhibitory concentration (IC50) was 320 nM.

`CCS(=O)(=O)NC(=O)c1cn2c(n1)sc1c(Cl)c(Cl)ccc12` [Example 24, 9,10-Dichloro-N-(ethanesulfonyl)-7-thia-2,5-diazatricyclo[6.4.0.0^2,6]dodeca-1(8),3,5,9,11-pentaene-4-carboxamide]: the IC50 is 340 nM.

For the molecule `O=C(NS(=O)(=O)CC(F)(F)F)c1cn2c(n1)sc1c(Cl)c(Cl)ccc12` [Example 25, 9,10-Dichloro-N-(2,2,2-trifluoroethanesulfonyl)-7-thia-2,5-diazatricyclo[6.4.0.0^2,6]dodeca-1(8),3,5,9,11-pentaene-4-carboxamide], the half-inhibitory concentration (IC50) is 180 nM.

The record behind these values is patent US10385069B2, “Imidazo[2,1-B]thiazole and 5,6-dihydroimidazo[2,1-B]thiazole derivatives useful as S100-inhibitors” (Active Biotech AB, priority 2015, dated 2019).
